# Patent publication US20210085640A1, “ACYLATED CATECHIN POLYPHENOLS AND METHODS OF THEIR USE FOR THE TREATMENT OF CANCER” (Flagship Pioneering Innovations V, Inc., priority 2018, published 2021)
# Key:
# [1] = Fecal Incubation Stability; type: in vitro ADME; details: fecal slurry, anaerobic, 1 or 10 μM
# Experimental: Fecal Incubation Stability. This assay was used to assess the stability of an acylated active agent in a large intestine. All experiments were performed in an anaerobic chamber containing 90% nitrogen, 5% hydrogen and 5% carbon dioxide. Fecal matter in a slurry (15% VW is added to 96 well plates containing YCFA media or other suitable media (1.6 mL). Compounds were added to each individual well to reach a final analyte concentration of 1 or 10 μM, and the material was mixed by pipetting. At set time points a sample was removed, quenched with acetonitrile, and analyzed by LC/MS.
# [2] = Stability in Simulated Gastric Fluid (SGF); type: in vitro ADME; details: SGF pH 1.6 with pepsin, 1 μM, 37° C.
# Experimental: Stability of acylated active agents in Simulated Gastric Fluid (SGF). This assay was used to assess the stability of an acylated active agent in a stomach.
# Medium was prepared by dissolving 2 g of sodium chloride in 0.6 L in ultrapure water (MilliQ®, Millipore Sigma, Darmstadt, Germany). The pH was adjusted to 1.6 with 1N hydrochloric acid, and the volume was then adjusted to 1 L with purified water.
# 60 mg FaSSIF powder (Biorelevant™, London, UK) were dissolved in 500 mL buffer (above). Pepsin was added (0.1 mg/mL) (Millipore Sigma, Darmstadt, Germany), and the solution was stirred. The resulting SGF media were used fresh for each experiment.
# Test compounds were dissolved in DMSO stock to 1 mM. An aliquot of the DMSO stock solution was removed and diluted in the SGF Media in 15 mL falcon tubes to generate a total compound concentration of 1 μM. A 1 mL aliquot was immediately removed and diluted once with 1 volume of acetonitrile for T0 timepoint. The mixture was sealed and mixed at 37° C. in an incubator. Aliquots (1 mL) were removed at regular intervals and immediately quenched by the addition of 1 volume of acetonitrile. The resulting samples were analyzed by LC/MS to determine degradation rates
# naïve CD4^+ T cells = experiment: Human Regulatory T Cell Differentiation Assay; type: cell-based; details: 6 days
# Experimental: (§1) Peripheral blood mononuclear cells (PBMCs) from whole blood donated by health volunteers were separated by Ficoll-Paque gradient centrifugation and naïve CD4^+ T cells were subsequently isolated using magnet beads (EasySep™ Human Naïve CD4^+ T Cell Isolation Kit, Cambridge, Mass.). For regulatory T cell (Treg) differentiation assay, naïve CD4^+ T cells were cultured (1-10×10^4 cells) in CTS OpTmizer medium for 6 days and stimulated with 5 ng/ml TGF-β, 100 U/ml IL-2, and ImmunoCult™ Human […] T Cell Activator; Stemcell #10990) with/without Compounds. Cell viability was determined using a viability dye (eBioscience Fixable Viability Dye eFluor 780: ThermoFisher 65-0865-14) at 1:500 dilution. The cells were gated for Treg, defined as Live, CD11c^−, CD14^−, CD19^−, CD8^−, CD4^+, CD3^+, CD25^+, FOXP3^+. Percent (%) Tregs were calculated as percentage of CD4^+, CD25^+, FOXP3^+ cells over total CD4^+ T cells. Statistical analysis was performed with GraphPad Prism Software Using One-Way ANOVA.
# AGS stomach cancer cells = experiment: Cancer cell survival (CellTiter-Glo), AGS; type: cell-based; design: Cell survival at given concentration: unit not given here
# In short: (§2)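 Cells were seeded at 4×10^3 cells/well and left overnight at 37 C, 5% CO2, then exposed in triplicate to nine compound concentrations for 72 h. Dosing solutions were made at 10× final (1 μM-10 mM fatty acids, 100 nM-1 mM other compounds). CellTiter-Glo luminescence, normalised to untreated and medium-only wells, gave IC50.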
# MCF7 breast cancer cells = experiment: Cancer cell survival (CellTiter-Glo), MCF7; type: cell-based; details: 72 h
# In short: as §2
# T24 bladder cancer cells = experiment: Cancer cell survival (CellTiter-Glo), T24; type: cell-based; details: 72 h
# In short: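 T24 cells seeded at 4×10^3 cells/well overnight, then exposed 72 h at 37 C, 5% CO2 to nine concentrations in triplicate. Survival measured by CellTiter-Glo luminescence relative to untreated and medium controls; IC50 derived.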
# [3] = system: HCT 116 colorectal cancer cells; experiment: Cancer cell survival (CellTiter-Glo), HCT 116; type: cell-based; details: HCT 116 cells, 72 h
# In short: as §2
# A549 lung cancer cells = experiment: Cancer cell survival (CellTiter-Glo), A549; type: cell-based; details: 72 h
# In short: as §2
# A-431 skin cancer cells = experiment: Cancer cell survival (CellTiter-Glo), A-431; type: cell-based; design: Cell survival at given concentration: unit not given here; details: A-431 cells, 72 h
# In short: as §2
# [4] = system: PC-3 prostate cancer cells; experiment: Cancer cell survival (CellTiter-Glo), PC-3; type: cell-based; details: PC-3 cells, 72 h
# In short: as §2
# [5] = system: Daudi lymphoma cancer cells; experiment: Cancer cell survival (CellTiter-Glo), Daudi; type: cell-based; details: 72 h
# In short: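 Daudi cells (4×10^3/well) were exposed for 72 h at 37 °C to nine concentrations of compound, added as 10× solutions spanning 1 μM–10 mM (fatty acids) or 100 nM–1 mM (others). CellTiter-Glo luminescence gave % survival versus untreated, medium-blank corrected; IC50 derived.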
# [6] = Human Regulatory T Cell Differentiation Assay; type: cell-based; details: human, primary naïve CD4+ T cells isolated from PBMCs, 3 mM, read-out: Cell viability % DMSO
# Experimental: as §1
structure (smiles),measurement,setting,value
"CCCC(=O)O[C@H](C)CC(=O)Oc1ccc(/C=C/c2cc(OC(=O)C[C@@H](C)OC(=O)CCC)cc(OC(=O)C[C@@H](C)OC(=O)CCC)c2)cc1 [Compound 16, [4-[(E)-2-[3,5-bis[[(3R)-3-butanoyloxybutanoyl]oxy]phenyl]vinyl]phenyl] (3R)-3-butanoyloxy-butanoate]",Assay 3 (% Remaining at 24 h),[1],A (<25% of the tested compound remaining)
same,Assay 1 (SGF) (% Remaining @ 1 hours),[2],C (>75% of the tested compound remaining)
"O=C(O[C@@H]1Cc2c(O)cc(O)cc2O[C@@H]1c1cc(O)c(O)c(O)c1)c1cc(O)c(O)c(O)c1 [EGCG, epigallocatechin gallate]",Cell viability % DMSO,naïve CD4^+ T cells; 100 nM,= (90% ≥ ≤110%: =)
same,Treg induction % DMSO,naïve CD4^+ T cells; 100 nM,= (90% ≥ ≤110%: =)
same,Cell viability % DMSO,naïve CD4^+ T cells; 1 uM,= (90% ≥ ≤110%: =)
same,Treg induction % DMSO,naïve CD4^+ T cells; 1 uM,= (90% ≥ ≤110%: =)
same,Cell survival at given concentration,AGS stomach cancer cells; 101 nM,1.01
same,Cell survival at given concentration,AGS stomach cancer cells; 318 nM,1.02
same,Cell survival at given concentration,"AGS stomach cancer cells; 1 μM, Table 10.1",1.05
same,Cell survival at given concentration,"AGS stomach cancer cells; 3 μM, Table 10.1",1.02
same,Cell survival at given concentration,"AGS stomach cancer cells; 10 μM, Table 10.1",0.90
same,Cell survival at given concentration,"AGS stomach cancer cells; 32 μM, Table 10.1",0.49
same,Cell survival at given concentration,"AGS stomach cancer cells; 100 μM, Table 10.1",0.20
same,Cell survival at given concentration,AGS stomach cancer cells; 316 μM,0.08
same,Cell survival at given concentration,AGS stomach cancer cells; 1000 μM,0.00
same,IC50,AGS stomach cancer cells; Table 10.1,33.2 µM
same,Cell survival at given concentration,MCF7 breast cancer cells; 101 nM,1.01
same,Cell survival at given concentration,MCF7 breast cancer cells; 318 nM,0.99
same,Cell survival at given concentration,MCF7 breast cancer cells; 1 μM,0.99
same,Cell survival at given concentration,MCF7 breast cancer cells; 3 μM,0.97
same,Cell survival at given concentration,MCF7 breast cancer cells; 10 μM,0.96
same,Cell survival at given concentration,MCF7 breast cancer cells; 32 μM,0.77
same,Cell survival at given concentration,MCF7 breast cancer cells; 100 μM,0.55
same,Cell survival at given concentration,MCF7 breast cancer cells; 316 μM,0.51
same,Cell survival at given concentration,MCF7 breast cancer cells; 1000 μM,0.11
same,IC50,MCF7 breast cancer cells; Table 5.1,231 µM
same,Cell survival at given concentration,T24 bladder cancer cells; 101 nM,1.00
same,Cell survival at given concentration,T24 bladder cancer cells; 318 nM,0.97
same,Cell survival at given concentration,T24 bladder cancer cells; 1 μM,1.02
same,Cell survival at given concentration,T24 bladder cancer cells; 3 μM,1.01
same,Cell survival at given concentration,T24 bladder cancer cells; 10 μM,0.96
same,Cell survival at given concentration,T24 bladder cancer cells; 32 μM,0.58
same,Cell survival at given concentration,T24 bladder cancer cells; 100 μM,0.15
same,Cell survival at given concentration,T24 bladder cancer cells; 316 μM,0.03
same,Cell survival at given concentration,T24 bladder cancer cells; 1000 μM,0.03
same,IC50,"T24 bladder cancer cells; Table 3.1, read-out: 1050",37.8 µM
same,Cell survival at given concentration,[3]; 101 nM,1.05
same,Cell survival at given concentration,[3]; 318 nM,0.98
same,Cell survival at given concentration,[3]; 1 μM,1.00
same,Cell survival at given concentration,[3]; 3 μM,1.03
same,Cell survival at given concentration,[3]; 10 μM,1.00
same,Cell survival at given concentration,[3]; 32 μM,0.61
same,Cell survival at given concentration,[3]; 100 μM,0.25
same,Cell survival at given concentration,[3]; 316 μM,0.06
same,Cell survival at given concentration,[3]; 1000 μM,0.00
same,IC50,[3]; Table 6.1,46.3 µM
same,Cell survival at given concentration,A549 lung cancer cells; 101 nM,1.02
same,Cell survival at given concentration,A549 lung cancer cells; 318 nM,1.05
same,Cell survival at given concentration,A549 lung cancer cells; 1 μM,1.03
same,Cell survival at given concentration,A549 lung cancer cells; 3 μM,1.04
same,Cell survival at given concentration,A549 lung cancer cells; 10 μM,0.99
same,Cell survival at given concentration,A549 lung cancer cells; 32 μM,0.77
same,Cell survival at given concentration,A549 lung cancer cells; 100 μM,0.33
same,Cell survival at given concentration,A549 lung cancer cells; 316 μM,0.21
same,Cell survival at given concentration,A549 lung cancer cells; 1000 μM,0.01
same,IC50,A549 lung cancer cells; Table 7.1,67.4 µM
same,Cell survival at given concentration,A-431 skin cancer cells; 101 nM,1.02
same,Cell survival at given concentration,A-431 skin cancer cells; 318 nM,1.02
same,Cell survival at given concentration,A-431 skin cancer cells; 1 μM,1.02
same,Cell survival at given concentration,A-431 skin cancer cells; 3 μM,1.01
same,Cell survival at given concentration,A-431 skin cancer cells; 10 μM,1.04
same,Cell survival at given concentration,A-431 skin cancer cells; 32 μM,0.78
same,Cell survival at given concentration,A-431 skin cancer cells; 100 μM,0.38
same,Cell survival at given concentration,A-431 skin cancer cells; 316 μM,0.30
same,Cell survival at given concentration,A-431 skin cancer cells; 1000 μM,0.04
same,IC50,A-431 skin cancer cells; Table 9.1,81.9 µM
same,Cell survival at given concentration,[4]; 101 nM,1.01
same,Cell survival at given concentration,[4]; 318 nM,0.99
same,Cell survival at given concentration,[4]; 1 μM,1.01
same,Cell survival at given concentration,[4]; 3 μM,0.97
same,Cell survival at given concentration,[4]; 10 μM,0.99
same,Cell survival at given concentration,[4]; 32 μM,0.82
same,Cell survival at given concentration,[4]; 100 μM,0.60
same,Cell survival at given concentration,[4]; 316 μM,0.51
same,Cell survival at given concentration,[4]; 1000 μM,0.10
same,IC50,[4]; Table 8.1,245 µM
same,Cell survival at given concentration,[5]; 101 nM,1.03
same,Cell survival at given concentration,[5]; 318 nM,1.02
same,Cell survival at given concentration,[5]; 1 μM,1.01
same,Cell survival at given concentration,[5]; 3 μM,0.97
same,Cell survival at given concentration,[5]; 10 μM,0.76
same,Cell survival at given concentration,[5]; 32 μM,0.31
same,Cell survival at given concentration,[5]; 100 μM,0.17
same,Cell survival at given concentration,[5]; 316 μM,0.00
same,Cell survival at given concentration,[5]; 1000 μM,0.00
same,IC50,[5]; Table 4.1,20.4 µM
CCC(=O)O [Propionic acid],activity at 3000 µM,"naïve CD4^+ T cells; Homo sapiens, CD4+ T, 144 h, 3 mM, read-out: Treg induction % DMSO",> 130%
same,"viability at 6 days, 3 mM",[6],90 to 110%
CC(O)CC(=O)[O-].[Na+] (centres unmarked) [Sodium BHB],Cell viability % DMSO,naïve CD4^+ T cells; 2 mM,= (90% ≥ ≤110%: =)
same,Treg induction % DMSO,naïve CD4^+ T cells; 2 mM,+ (110% > ≤130%: +)
same,Cell viability % DMSO,naïve CD4^+ T cells; 20 mM,− (<90%: −)
same,Treg induction % DMSO,naïve CD4^+ T cells; 20 mM,= (90% ≥ ≤110%: =)
